Laboratory results: patent publication US20250304620A1, “ANTIMICROBIAL PEPTIDE AND APPLICATION THEREOF” (priority 2023, published 2025)
In brackets after ≈: the same amount, converted by molar mass. Non-standard residues stand in square brackets, D forms with d. Residues, ends and D or L forms follow the SMILES beside them. dPhe(4-F) = N[C@H](Cc1ccc(F)cc1)C(=O)O; d2Nal = N[C@H](Cc1ccc2ccccc2c1)C(=O)O

What was measured:
[1] = system: Staphylococcus aureus (NRS 384); conditions: NRS 384, 3 h
Description: Trypsin (250 U/mg, pH=8.0) and AMPs (LV-1 to LV-30) were mixed in a ratio of 1:10 (w/w) and added to a reaction buffer (0.2 M sodium phosphate, 1 mM CaCl2), pH 7.5), and then incubated at 37° C. for 3 h.

[2] = Serum stability assay (residual level by RP-HPLC); conditions: human
[3] = system: Staphylococcus aureus (NRS 384); test: microbe, parasite or virus in culture; format: cell-based; conditions: NRS 384
How it was run: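 MICs were read against S. aureus strain NRS 384 using twofold serial dilution by CLSI microdilution rules. Levofloxacin and Cbf-K16 were the reference controls, and the test was repeated 5 times in parallel.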

[4] = system: Candida glabrata ATCC 15126; format: cell-based
Excerpt: (§1) According to the Standards of Clinical and Laboratory Standards Institute (CLSI) of the USA for antimicrobial drug susceptibility test operation standards, the micronutrient serial twofold dilution method was used further determine MICs of 30 AMPs (S/N: LV-1 to LV-30) 10 clinically common sensitive strains and 6 fungi in clinical practice. The experiment was repeated 5 times in parallel.

Candida krusei ATCC 6258 = format: cell-based
Excerpt: as §1

Enterococcus ATCC 29212 = format: cell-based
Excerpt: as §1

[5] = system: Trichophyton ATCC MYA-4438; format: cell-based
Excerpt: as §1

[6] = system: Corynebacterium ATCC 7715; format: cell-based
Excerpt: as §1

[7] = system: Candida albicans ATCC MYA-2876; format: cell-based
Excerpt: as §1

[8] = system: Staphylococcus aureus ATCC 25923; format: cell-based
Excerpt: as §1

[9] = system: Serratia marcescens ATCC 29021; format: cell-based
Excerpt: as §1

Candida utilis ATCC 9950 = format: cell-based
Excerpt: as §1

[10] = system: Klebsiella pneumoniae ATCC 700603; format: cell-based
Excerpt: as §1

[11] = system: Pseudomonas aeruginosa ATCC 27853; format: cell-based
Excerpt: as §1

[12] = system: Salmonella typhimurium ATCC 14028; format: cell-based
Excerpt: as §1

[13] = system: Candida tropicalis ATCC 750; format: cell-based
Excerpt: as §1

[14] = system: Escherichia coli ATCC 25922; format: cell-based
Excerpt: as §1

[15] = system: Bacillus subtilis ATCC 6633; format: cell-based
Excerpt: as §1

[16] = system: Shigella flexneri ATCC 12022; test: MIC against clinically common bacterial strain; format: cell-based
Excerpt: as §1

[17] = system: Methicillin-resistant Staphylococcus aureus (MRSA); format: cell-based; conditions: Methicillin-resistant
Excerpt: (§2) According to the Standards of Clinical and Laboratory Standards Institute (CLSI) of the USA for antimicrobial drug susceptibility test operation standards, the micronutrient serial twofold dilution method was used further determine MICs of the antimicrobial peptides LV-1 to LV-30 against 5 clinically common drug-resistant bacterial strains. The experiment was repeated 5 times in parallel. […] The tested drug-resistant strains included Methicillin-resistant Staphylococcus aureus (MRSA), carbapenem-resistant Escherichia coli (CREC), vancomycin-resistant Enterococcus (VRE), carbapenem-resistant Pseudomonas aeruginosa (CRPA), and carbapenem-resistant Klebsiella pneumoniae (CRKP).

[18] = system: carbapenem-resistant Escherichia coli (CREC); format: cell-based; conditions: carbapenem-resistant (CREC)
Excerpt: as §2

[19] = system: vancomycin-resistant Enterococcus (VRE); format: cell-based
Excerpt: as §2

[20] = system: carbapenem-resistant Klebsiella pneumoniae (CRKP); format: cell-based; conditions: carbapenem-resistant (CRKP)
Excerpt: as §2

[21] = system: carbapenem-resistant Pseudomonas aeruginosa (CRPA); format: cell-based; conditions: carbapenem-resistant (CRPA)
Excerpt: as §2

Structure (SMILES)	Trypsin MIC [1] [µg/mL]	remaining at 12 h, 0.91 mg/mL [2] [%]	MIC against Staphylococcus aureus (NRS 384) [3] [µg/mL]	MIC Candida glabrata ATCC 15126 [4] [µg/mL]	MIC Candida krusei ATCC 6258 (Candida krusei ATCC 6258) [µg/mL]	MIC Enterococcus ATCC 29212 (Enterococcus ATCC 29212) [µg/mL]	MIC Trichophyton ATCC MYA-4438 [5] [µg/mL]	MIC Corynebacterium ATCC 7715 [6] [µg/mL]	MIC Candida albicans ATCC MYA-2876 [7] [µg/mL]	MIC Staphylococcus aureus ATCC 25923 [8] [µg/mL]	MIC Serratia marcescens ATCC 29021 [9] [µg/mL]	MIC Candida utilis ATCC 9950 (Candida utilis ATCC 9950) [µg/mL]	MIC Klebsiella pneumoniae ATCC 700603 [10] [µg/mL]	MIC Pseudomonas aeruginosa ATCC 27853 [11] [µg/mL]	MIC Salmonella typhimurium ATCC 14028 [12] [µg/mL]	MIC Candida tropicalis ATCC 750 [13] [µg/mL]	MIC Escherichia coli ATCC 25922 [14] [µg/mL]	MIC Bacillus subtilis ATCC 6633 [15] [µg/mL]	MIC Shigella flexneri ATCC 12022 [16] [µg/mL]	MIC MRSA [17] [µg/mL]	further results
CC(=O)N[C@H](CCCNC(=N)N)C(=O)N[C@H](CCCCN)C(=O)N[C@H](CC(C)C)C(=O)N[C@H](CC(C)C)C(=O)N[C@H](Cc1ccc2ccccc2c1)C(=O)N[C@H](CCCNC(=N)N)C(=O)N[C@H](CC(C)C)C(=O)N[C@H](CCCCN)C(=O)N[C@H](Cc1ccccc1)C(=O)N[C@H](CCCNC(=N)N)C(=O)N[C@H](CCCCN)C(N)=O [LV-4] (Ac-[dR][dK][dL][dL][d2Nal][dR][dL][dK][dF][dR][dK]-NH2)	1	98.7	1 (≈ 0.627 µM)	8 (≈ 5.01 µM)	16 (≈ 10 µM)	2 (≈ 1.25 µM)	8 (≈ 5.01 µM)	2 (≈ 1.25 µM)	8 (≈ 5.01 µM)	1 (≈ 0.627 µM)	2 (≈ 1.25 µM)	8 (≈ 5.01 µM)	4 (≈ 2.51 µM)	2 (≈ 1.25 µM)	2 (≈ 1.25 µM)	16 (≈ 10 µM)	2 (≈ 1.25 µM)	4 (≈ 2.51 µM)	4 (≈ 2.51 µM)	8 (≈ 5.01 µM)	MIC CREC [18]: 8 µg/mL (≈ 5.01 µM); MIC VRE [19]: 2 µg/mL (≈ 1.25 µM); MIC CRKP [20]: 2 µg/mL (≈ 1.25 µM); MIC CRPA [21]: 4 µg/mL (≈ 2.51 µM)
CC(=O)N[C@H](CCCNC(=N)N)C(=O)N[C@H](CCCCN)C(=O)N[C@H](CC(C)C)C(=O)N[C@H](CC(C)C)C(=O)N[C@H](Cc1ccc(F)cc1)C(=O)N[C@H](CCCCN)C(=O)N[C@H](CC(C)C)C(=O)N[C@H](CCCCN)C(=O)N[C@H](Cc1ccc(F)cc1)C(=O)N[C@H](CCCCN)C(=O)N[C@H](CCCNC(=N)N)C(N)=O [LV-5] (Ac-[dR][dK][dL][dL][dPhe(4-F)][dK][dL][dK][dPhe(4-F)][dK][dR]-NH2)	1	98.2	1 (≈ 0.644 µM)	16 (≈ 10.3 µM)	4 (≈ 2.57 µM)	2 (≈ 1.29 µM)	4 (≈ 2.57 µM)	4 (≈ 2.57 µM)	8 (≈ 5.15 µM)	1 (≈ 0.644 µM)	2 (≈ 1.29 µM)	16 (≈ 10.3 µM)	2 (≈ 1.29 µM)	2 (≈ 1.29 µM)	4 (≈ 2.57 µM)	8 (≈ 5.15 µM)	4 (≈ 2.57 µM)	4 (≈ 2.57 µM)	2 (≈ 1.29 µM)	4 (≈ 2.57 µM)	MIC CREC [18]: 8 µg/mL (≈ 5.15 µM); MIC VRE [19]: 8 µg/mL (≈ 5.15 µM); MIC CRKP [20]: 4 µg/mL (≈ 2.57 µM); MIC CRPA [21]: 4 µg/mL (≈ 2.57 µM)
